Laboratory results: ChEMBL document CHEMBL1201862, “PubChem BioAssay data set” (2004)
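How tested: cells in 96-well plates exposed to compound for 48 hours at five concentrations. Here, GI50 denotes the concentration required for 50% inhibition of growth.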 The source made the active and inactive calls. No stated cut-off is given here; in the data, active = GI50 up to about 1.1 µM and inactive = higher.

Columns and labels:
Assay in all cases: DTP human tumour cell line panel, 48 h
LXFL 529 = test system: LXFL 529
HCT-15 = test system: HCT-15
NCI-H522 = test system: NCI-H522
HCT-116 = test system: HCT-116
U-251 = test system: U-251
SNB-78 = test system: SNB-78
HCC 2998 = test system: HCC 2998
NCI-H460 = test system: NCI-H460
KM-20L2 = test system: KM-20L2
HT-29 = test system: HT-29
SNB-19 = test system: SNB-19
HL-60 = test system: HL-60
SF-268 = test system: SF-268
SR = test system: SR
NCI-H226 = test system: NCI-H226
786-0 = test system: 786-0
SK-MEL-5 = test system: SK-MEL-5
DMS-273 = test system: DMS-273
M19-MEL = test system: M19-MEL
ACHN = test system: ACHN
UACC-62 = test system: UACC-62
SNB-75 = test system: SNB-75
RXF 393 = test system: RXF 393
SN12C = test system: SN12C
SK-OV-3 = test system: SK-OV-3
Malme-3M = test system: Malme-3M
A498 = test system: A498
OVCAR-5 = test system: OVCAR-5
UACC-257 = test system: UACC-257
EKVX = test system: EKVX
DMS-114 = test system: DMS-114
MOLT-4 = test system: MOLT-4
OVCAR-8 = test system: OVCAR-8
SF-295 = test system: SF-295
COLO 205 = test system: COLO 205
M14 = test system: M14
SW-620 = test system: SW-620
DLD-1 = test system: DLD-1
OVCAR-4 = test system: OVCAR-4
KM12 = test system: KM12
HOP-18 = test system: HOP-18
XF498 = test system: XF498
UO-31 = test system: UO-31
CCRF-CEM = test system: CCRF-CEM
SF-539 = test system: SF-539
HOP-62 = test system: HOP-62
K562 = test system: K562
TK-10 = test system: TK-10
LOX IMVI = test system: LOX IMVI
A549 = test system: A549
NCI-H23 = test system: NCI-H23
OVCAR-3 = test system: OVCAR-3
RPMI-8226 = test system: RPMI-8226
IGROV-1 = test system: IGROV-1
SK-MEL-28 = test system: SK-MEL-28
SK-MEL-2 = test system: SK-MEL-2
HOP-92 = test system: HOP-92
CAKI-1 = test system: CAKI-1

Measured: GI50

COc1ccccc1/N=N/c1c(-c2ccccc2)nn(C(=O)CC(=O)Nc2ccccc2Cl)c1-c1ccccc1
> 100 µM: HCT-15
inactive: LXFL 529 > 100 µM | NCI-H522 > 100 µM | HCT-116 > 100 µM | U-251 > 100 µM | SNB-78 > 100 µM | HCC 2998 > 100 µM | NCI-H460 > 100 µM | KM-20L2 > 100 µM | HT-29 99.3 µM | SNB-19 > 100 µM | HL-60 > 100 µM | SF-268 > 100 µM | SR > 100 µM | NCI-H226 > 100 µM | 786-0 > 100 µM | SK-MEL-5 > 100 µM | DMS-273 > 100 µM | M19-MEL > 100 µM | ACHN > 100 µM | UACC-62 > 100 µM | SNB-75 > 100 µM | RXF 393 24.6 µM | SN12C > 100 µM | SK-OV-3 > 100 µM | Malme-3M > 100 µM | A498 > 100 µM | OVCAR-5 > 100 µM | UACC-257 > 100 µM | EKVX > 100 µM | DMS-114 > 100 µM | MOLT-4 81.8 µM | OVCAR-8 > 100 µM | SF-295 > 100 µM | COLO 205 > 100 µM | M14 > 100 µM | SW-620 > 100 µM | DLD-1 > 100 µM | OVCAR-4 > 100 µM | KM12 > 100 µM | HOP-18 > 100 µM | XF498 > 100 µM | UO-31 > 100 µM | CCRF-CEM 77.8 µM | SF-539 > 100 µM | HOP-62 > 100 µM | K562 > 100 µM | TK-10 > 100 µM | LOX IMVI > 100 µM | A549 > 100 µM | NCI-H23 > 100 µM | OVCAR-3 > 100 µM | RPMI-8226 65.5 µM | IGROV-1 > 100 µM | SK-MEL-28 > 100 µM

CC1C2=CC=C(O2)C(C)(C)C2=CC=C(O2)C(C)(C)C2=CC=C(O2)C(C)(C)C2=CC=C1O2
inactive: LXFL 529 > 100 µM | NCI-H522 > 100 µM | HCT-116 > 100 µM | U-251 > 100 µM | SNB-78 > 100 µM | HCC 2998 > 100 µM | NCI-H460 > 100 µM | KM-20L2 > 100 µM | HT-29 > 100 µM | SNB-19 > 100 µM | HL-60 > 100 µM | SF-268 > 100 µM | SR > 100 µM | NCI-H226 > 100 µM | 786-0 > 100 µM | SK-MEL-2 > 100 µM | DMS-273 > 100 µM | M19-MEL > 100 µM | ACHN > 100 µM | RXF 393 > 100 µM | SN12C > 100 µM | SK-OV-3 > 100 µM | Malme-3M > 100 µM | A498 > 100 µM | OVCAR-5 > 100 µM | UACC-257 > 100 µM | HOP-92 18.9 µM | EKVX > 100 µM | MOLT-4 > 100 µM | OVCAR-8 > 100 µM | SF-295 > 100 µM | COLO 205 > 100 µM | SW-620 > 100 µM | OVCAR-4 > 100 µM | KM12 > 100 µM | HOP-18 > 100 µM | CAKI-1 > 100 µM | XF498 > 100 µM | CCRF-CEM > 100 µM | SF-539 > 100 µM | HOP-62 > 100 µM | K562 > 100 µM | TK-10 > 100 µM | LOX IMVI > 100 µM | A549 > 100 µM | NCI-H23 > 100 µM | IGROV-1 > 100 µM | SK-MEL-28 > 100 µM
> 100 µM: HCT-15
